Reference: US20100004303A1, “TREATMENT OF ENDOCRINE DYSFUNCTION USING IRON CHELATORS” (NOVARTIS AG, priority 2006, published 2010)

Experiments:
[1] = test system: HJV−/− mice with iron overload; experiment: Pancreas iron (ICP-OES) in HJV−/− mice with iron overload; type: in vivo
Procedure: The spontaneous iron loading and the effect of 4-[3,5-bis(2-hydroxyphenyl)-[1,2,4]triazol-1-yl]benzoic acid (Compound I) has been examined upon the removal of iron in HJV−/− mice with iron overload.
Methods: Inductively-Coupled Plasma Optical Emission Spectrometry (ICP-OES, measurement of elemental iron) determinations in spleen and pancreas were performed at week 8 (study start), 14, 20 and 28 in HJV−/− and wild type (wt) mice (n=6−8). Starting at week 20 three groups of HJV−/− animals received daily 0 (vehicle), 30 or 100 mg/kg of 4-[3,5-bis(2-hydroxyphenyl)-[1,2,4]triazol-1-yl]benzoic acid, control wt-mice remained untreated. Iron loading was observed up to 28 weeks, including vehicle group, and the effects of 4-[3,5-bis(2-hydroxyphenyl)-[1,2,4]triazol-1-yl]benzoic acid were assessed by comparing the 28-week groups. MRI R2* measurements were performed using a 4.7 MR imager.

[2] = test system: pancreatic Min6 cells; experiment: Labile iron exposure of pancreatic Min6 cells: iron accumulation, cell damage, viability; type: cell-based
Text: (§1) Among the functions affected by metal-evoked ROS are cell permselectivity (calcein leakage), mitochondrial membrane potential (JC1 test), electron transport activity (Alamar Blue) and cell viability (calcein-propidium iodide). It can be observed that administration of deferasirox at therapeutically achievable doses ([…]): […]

[3] = test system: pituitary Att20 cells; experiment: Labile iron exposure of pituitary Att20 cells: iron accumulation, cell damage, viability; type: cell-based
Text: as §1

[4] = test system: At20 pituitary cells; experiment: Cytoprotective effect on acutely iron-overloaded At20 pituitary cells (calcein retention, Alamar-Blue, ACTH levels); type: cell-based; details: cell culture conditions, pharmacological chelator concentrations
Text: A major cause of biological damage associated with tissue iron accumulation is the cellular acquisition of circulating labile plasma iron (LPI) by endocytic mechanisms and ensuing metal-catalyzed oxidations. Endocrine cells are presumed to have endocytic abilities and/or high susceptibility to the formation of reactive oxygen intermediates (ROIs), particularly those generated in the presence of labile iron. As these properties might be implicated in the early onset of endocrine dysfunctions observed in transfusional hemosiderosis, a major goal of iron chelation therapy is to prevent iron ingress into endocrine cells and ensuing toxicity and/or removal of cell accumulated iron. Such properties of chelators have been afforded in cardiac cells (Glickstein et al, 2006, Blood In press) by treating LPI-carrying plasma with pharmacological attainable concentrations of orally active iron chelators in clinical practice. […] It has been explored here whether addition of 4-[3,5-bis(2-hydroxyphenyl)-[1,2,4]triazol-1-yl]benzoic acid could rescue acutely-iron-overloaded At20 pituitary cells from iron-toxicity, using fluorescence-plate reader and microscopy-imaging for live monitoring of cell functions and assessing toxicity in terms of: 1. cell integrity (calcein cell retention assay) 2. metabolic activities (mitochondrial Alamar-Blue assay) and 3. intracellular (ACTH) hormone levels.

[5] = test system: Diet-induced obese mice; experiment: Oral glucose tolerance test and plasma insulin in diet-induced obese mice; type: in vivo; details: compared to the control animals
Procedure: Diet-induced obese mice are used for the study at 21-23 weeks of age. On the first day of the study, animals are fasted at 7:30 a.m. Body weight measurement and basal blood sample collection are conducted at 10:30 a.m. Plasma glucose values are then determined. Animals were assigned into 4 groups (n=10/group) with the plasma glucose values and body weights matched between the 4 groups. At 12 pm, the animals are dosed orally with vehicle (water) or the Compound I at 30 mg/kg or […] respectively. At 1:00 p.m. a blood sample (at 0 min) is taken followed by an oral glucose tolerance test (OGTT) at 1 g/kg (20% glucose in water) at a dose volume of 5 ml/kg. Blood samples are collected at 30, 60 and 120 min following the glucose administration. The animals are refed after the OGTT. […]
Blood samples are taken during the study via tail bleeding. Plasma glucose concentrations are determined using a glucose meter (Ascensia Elite, Bayer Corp., Mishawaka, Ind.). […] Plasma insulin and glucagons levels are determined by Luminex assays using Mouse Endocrine Lincoplex kit (Linco Research, Inc., St. Charles, Mo.). […] Plasma triglyceride, fatty acid and total cholesterol levels are determined using a fluorescent assay based on Amplex Red kit (Molecular Probes, Eugene, Oreg.). […] Effects on cardiovascular diseases can also be assessed by further analysis on treated animals.

[6] = test system: subjects with IGM; experiment: Multi-center, double-blind, randomized study in subjects with IGM; type: in vivo, human; details: 8 weeks of treatment
Text: Favorable effects can be verified that confirm that Compound I can restore early phase insulin secretion and reduce post-prandial glucose levels in subjects with IGM, or can prevent or delay the onset of Type 2 diabetes and cardiovascular diseases in subjects with IGM. A multi-center, double-blind, parallel group, randomized study can be conducted in subjects with IGM in order to evaluate the incidence of confirmed hypoglycemia and the effects on prandial glucose associated with the administration of Compound I, or placebo before each main meal during 8 weeks of treatment. […]
Corresponding dosages of Compound I are administered daily depending on the number of main meals (breakfast, lunch, snack, dinner). […] HbA1c is to be measured at baseline and after 8 weeks of treatment (fasting glucose and fructosamine). Samples of blood are to be drawn at 10, 20, […], 60, 120, and 180 minutes after drug administration (time 0) and the glucose and insulin levels to be measured. […]

[7] = model systems and humans; Hershko 2001, Nisbet Brown 2003; cited from earlier work
[8] = 30-100 μM, incubated prior to or post iron-loading (acutely or chronically)
[9] = 30-100 μM, present in the iron loading medium
[10] = 30-100 μm, incubated prior to or post iron-loading (acutely or chronically)

O=C(O)c1ccc(-n2nc(-c3ccccc3O)nc2-c2ccccc2O)cc1 [Compound I, 4-[3,5-Bis-(2-hydroxyphenyl)-[1,2,4]-triazol-1-yl]benzoic acid]
pancreas iron ± SEM ([1]; 30 mg/kg daily from week 20, 28-week group, n = 7): 4.72 ± 0.65 mg/g dry weight
pancreas iron ± SEM ([1]; 100 mg/kg daily from week 20, 28-week group, n = 6): 3.54 ± 0.55 mg/g dry weight
pancreas iron levels, effect in words ([1]; 100 mg/kg dose): clear trend to lower levels
pancreatic iron load, effect in words ([1]; within 8 weeks of treatment): trend to improvement of pancreatic iron load
cell viability [2, 8]: increases cell viability
labile iron raising in cells [2, 9]: largely prevents labile iron from raising in cells
iron-evoked cell damage [2, 10]: reduces iron-evoked cell damage
cell viability [3, 8]: increases cell viability
labile iron raising in cells [3, 9]: largely prevents labile iron from raising in cells
iron-evoked cell damage [3, 10]: reduces iron-evoked cell damage
At20 endocrine cell viability and functional properties compromised by iron-catalyzed formation of ROIs [4]: can preserve both At20 endocrine cell viability and functional properties
plasma insulin levels [5]: can show a lowering in plasma insulin levels
2 hour prandial glucose levels, HBA1c and fructosamine levels [6]: can be reduced
early phase insulin secretion [6]: can be restored
selective removal of iron [7]: effective in the selective removal of iron
